From patent US4232006A, “Antibiotic W-10 complex, antibiotic 20561 and antibiotic 20562 as antifungal agents” (Schering Corporation, priority 1978, dated 1980)
In brackets after ≈: the same amount, converted by molar mass. Numbered stars: 1 amine (or outer) side, 2 acyl side, 3 side chain; on linkers, the order of the positions; unused ones are H or OH. Bridge positions count the residues as written; N and C are the ends. Square brackets hold non-standard residues; d marks the D form. Peptide text beside a SMILES is read from it. * marks the point of attachment. NMeT = CN[CH](C(=O)O)[CH](C)O; X1 = CCCCCCCCCCCC(O)CC(=O)*; X2 = CC=C(N[*:1])C(=O)[*:2]; X3 = OCC1OC(*)C(O)C(O)C1O

What was measured:
Aeromonas sp. W-10 = assay: Resistance of Aeromonas sp. W-10 to antibacterial agents (physiological characteristics); format: cell-based
From the text: Based upon the physiological characteristics, morphology and the guanine plus cytosine content of isolated DNA, we have classified the organism as a novel member of the genus Aeromonas. We have designated the bacterium Aeromonas sp. W-10, sometimes referred to herein as Aeromonas W-10, and have deposited the microorganism with the United States Department of Agriculture, Northern Utilization Research and Development Division (NRRL), Peoria, Illinois, from whom subcultures are available. The microorganism has been assigned the numerical designation NRRL B-11053. […]. When observed microscopically, Aeromonas sp. W-10 is seen to be a non-spore forming, gram-negative rod approximately 0.5 to 1.0×1.0-1.5 microns. It occurs singly and is motile by means of a single polar flagellum. The organism is facultatively anaerobic, oxidase positive, capable of reducing nitrates to nitrites, insensitive to the vibriostatic compound 2 4-diamino-6,7-diisopropylpteridine (0/129) with a guanine-cytosine content of DNA at 61%. According to Bergy's Manual of Determinative Bacteriology, 8th Edition, the organism is, on the basis of the data set forth, classified as a member of the genus Aeromonas.
The growth and physiological characteristics of Aeromonas sp. All observations were made after seven (7) days of incubation at 28° C. […]

[1] = tested on: Trichophyton mentagrophytes; assay: In vivo topical activity against Trichophyton mentagrophytes skin infection in guinea pigs; conditions: 1% suspension in polyethylene glycol 400, topical twice daily for ten days from three days after infection
Protocol: The skin of fifteen guinea pigs is abraided and infected with a standard culture of Trichophyton mentagropytes. The infected animals are then separated into three groups containing five animals each. Suspensions containing 1% of the respective antibiotics in polyethylene glycol 400 are prepared. Two of the three groups are treated topically, twice daily for ten days commencing three days after infection. The third group (controls) remained untreated throughout the test. All of the animals are tested for infection by culture and observed for skin lesions for a total of 21 days.

Candida albicans [2] = assay: In vivo protection (PD50) of mice intravenously infected with Candida albicans; set-up: species or system male CF1 mice; conditions: single dose one hour after i.v. infection, determined 48 hours after infection
Protocol: The in vivo activity of Antibiotic 20561, Antibiotic 20562 and the Antibiotic W-10 complex are obtained using male CF1 mice (Carworth Famrs) given a single oral or subcutaneous dose one hour after intraveneous infection with sufficient Candida albicans to kill 80% of the infected mice in 48 hours.
PD50 values were determined 48 hours after infection and are as follows: […]

[3] = Toxicity (LD50), oral or subcutaneous administration; format: in vivo
[4] = tested on: Saccharomyces cerevisiae ATCC 9763; assay: Agar diffusion potency assay against standard solution of Antibiotic 20562; format: cell-based
Protocol: Peak Antibiotic W-10 Complex production is determined by periodic sampling of the fermentation mixture and by subjecting the samples to an agar diffusion assay using Saccharomyces cerevisiae ATCC 9763 as the test organism. The broths are assayed against a standard solution of Antibiotic 20562 having an assigned potency of 1000 mcg/mg. The standard solution is diluted with 10% potassium phosphate buffer (pH 6.0) to make solutions having antibiotic concentrations of 3.2, 4.0, 5.0, 6.25 and 7.8 mcg/ml. The assay is performed substantially as set forth in the Federal Register, Title 21, Chapter 436.105.

[5] = tested on: Candida albicans (Wisconsin strain); assay: Topical in vivo activity against Candida albicans intravaginal infection in hamsters
Protocol: Using a culture of Candida albicans (Wisconsin strain), in Sabourrauds dextrose broth, infect intravaginally, five groups of six female hamsters. Forty-eight and seventy-two hours after infection, make smears of the infected animals and culture the smears. […] (96 hours after infection), make additional smears, culture and commence treatment. One group of six animals (controls) receives no treatment and, therefore, remains infected throughout the test. The remaining four groups of animals are treated with Antibiotic 20562, as 1%, 5%, 10% and 15% suspensions, respectively, the vehicle for suspension being administered on a cotton swab. At the end of the three day treatment the 1%, 5% and 10% groups are 60% cured, the 15% group is completely (100%) cured.

Candida albicans [6] = assay: MIC in vitro in Sabourraud dextrose broth against strains of Candida albicans; format: cell-based
Protocol: Antibiotic 20562 was tested in vitro in Sabourraud dextrose broth against strains of Candida albicans, the Minimum Inhibitory Concentration (MIC) being set forth in Table IV below: […]

[7] = products of Example 2 step B, precipitated after silica gel chromatography
[8] = products of Example 3 steps C and D
[9] = separated antibiotics, crystalline solids from methanol, vs standard of 1000 mcg/mg

With CC(C)c1nc2nc(N)nc(N)c2nc1C(C)C [0/129, 2 4-diamino-6,7-diisopropylpteridine] as the compound, how does the “sensitivity of the organism to the vibriostatic compound” value (Aeromonas sp. W-10) read?
The value was “insensitive”.

Which “Days to become negative: Culture” value [1] does the source give for CC=C(NC(=O)CC(O)CCCCCCCCCCC)C(=O)NC1C(=O)NC(C(C)O)C(=O)NC(Cc2ccc(O)cc2)C(=O)NC(=CC)C(=O)NC(CCC(N)=O)C(=O)NCC(=O)N(C)C(C(C)O)C(=O)NC(Cc2cnc[nH]2)C(=O)OC1C (centres unmarked) [Antibiotic 20561] (X1-[X2]TTY[X2]QG[NMeT]H; ester 2-C; configuration not given here) here?
The value was 4.8 days.

And the “Days to become negative: Lesion” value [1]?
The value was 6.3 days.

What about the PD50 (Candida albicans [2]; oral administration) of the same compound?
The PD50 was 25 mg/kg.

What about the PD50 (Candida albicans [2]; subcutaneous administration) of the same compound?
The PD50 was 4 mg/kg.

What about the LD50 ([3]; oral administration) of the same compound?
The LD50 was 1000 mg/kg.

What about the LD50 ([3]; subcutaneous administration) of the same compound?
The LD50 was > 1000 mg/kg.

What about the “Assay (potency by agar diffusion)” value [4, 7] of the same compound?
Its value is 800 µg/mg.

And the “Assay (potency by agar diffusion)” value [4, 8]?
Its value is 800 µg/mg.

And the “Assay (potency by agar diffusion)” value [4, 9]?
The value was “about 800 mcg/mg”.

For CC=C(NC(=O)CC(O)CCCCCCCCCCC)C(=O)NC1C(=O)NC(C(C)O)C(=O)NC(Cc2ccc(O)cc2)C(=O)NC(=CC)C(=O)NC(CCC(N)=O)C(=O)NCC(=O)N(C)C(C(C)OC2OC(CO)C(O)C(O)C2O)C(=O)NC(Cc2cnc[nH]2)C(=O)OC1C (centres unmarked) [Antibiotic 20562] (X1-[X2]TTY[X2]QG[NMeT](X3)H; ester 2-C; configuration not given here), which “Days to become negative: Culture” value [1] is on record?
The value was 5.8 days.

And the “Days to become negative: Lesion” value [1]?
The value was 9.0 days.

And the “cured at end of three day treatment” value ([5]; 1% suspension)?
Its value is 60%.

What about the “cured at end of three day treatment” value ([5]; 5% suspension) of the same compound?
The value was 60%.

And the “cured at end of three day treatment” value ([5]; 10% suspension)?
Its value is 60%.

And the “cured at end of three day treatment” value ([5]; 15% suspension)?
The value was 100%.

What about the MIC (Candida albicans [6]; Candida albicans strain 29) of the same compound?
Its MIC is 0.075 µg/mL (≈ 0.0552 µM).

What about the MIC (Candida albicans [6]; Candida albicans strain Bevan) of the same compound?
Its MIC is 0.075 µg/mL (≈ 0.0552 µM).

What about the MIC (Candida albicans [6]; Candida albicans strain Burke) of the same compound?
Its MIC is 0.075 µg/mL (≈ 0.0552 µM).

And the MIC (Candida albicans [6]; Candida albicans strain Collins)?
The MIC was 0.075 µg/mL (≈ 0.0552 µM).

And the MIC (Candida albicans [6]; Candida albicans strain Fix)?
The MIC was 0.075 µg/mL (≈ 0.0552 µM).

What about the MIC (Candida albicans [6]; Candida albicans strain Lush) of the same compound?
Its MIC is 0.075 µg/mL (≈ 0.0552 µM).

And the MIC (Candida albicans [6]; Candida albicans strain Merkel)?
The MIC was 0.075 µg/mL (≈ 0.0552 µM).

What about the MIC (Candida albicans [6]; Candida albicans strain Newcomb) of the same compound?
Its MIC is 0.075 µg/mL (≈ 0.0552 µM).

What about the MIC (Candida albicans [6]; Candida albicans strain No. 1) of the same compound?
Its MIC is 0.075 µg/mL (≈ 0.0552 µM).

What about the MIC (Candida albicans [6]; Candida albicans strain Raub) of the same compound?
The MIC was 0.075 µg/mL (≈ 0.0552 µM).

What about the MIC (Candida albicans [6]; Candida albicans strain Sperk) of the same compound?
Its MIC is 0.075 µg/mL (≈ 0.0552 µM).

What about the MIC (Candida albicans [6]; Candida albicans strain Wisconsin) of the same compound?
The MIC was 0.075 µg/mL (≈ 0.0552 µM).

What about the PD50 (Candida albicans [2]; oral administration) of the same compound?
The PD50 was 25 mg/kg.

What about the PD50 (Candida albicans [2]; subcutaneous administration) of the same compound?
Its PD50 is 4 mg/kg.

And the LD50 ([3]; oral administration)?
The LD50 was 800 mg/kg.

And the LD50 ([3]; subcutaneous administration)?
Its LD50 is 600 mg/kg.

And the “Assay (potency by agar diffusion)” value [4, 7]?
Its value is 800 µg/mg.

What about the “Assay (potency by agar diffusion)” value [4, 8] of the same compound?
Its value is 1000 µg/mg.

And the “Assay (potency by agar diffusion)” value [4, 9]?
The value was “about 1000 mcg/mg”.
